Experimental data as given in ChEMBL document CHEMBL3745619, “Preparation and optimization of pyrazolo[1,5-a]pyrimidines as new potent PDE4 inhibitors” (Bioorg Med Chem Lett, 2016).

Assays:
Phosphodiesterase 4 [1] = target: T1, Phosphodiesterase 4 (Homo sapiens, UniProt P27815+Q08499+Q07343+Q08493); assay: Inhibition of PDE4 in human SHSY-5Y cells assessed as suppression of cAMP hydrolysis by HTRF assay in presence of dye d2 labelled cAMP; format: cell-based; details: sh-sy5y
[2] = target: 3',5'-cyclic-AMP phosphodiesterase 4B (Homo sapiens, UniProt Q07343); assay: Inhibition of human recombinant PDE4B1 expressed in insect Sf9 cells by fluorescence capillary-electrophoresis assay
Phosphodiesterase 4 [3] = target: T1, Phosphodiesterase 4; assay: Inhibition of PDE4 in human SHSY-5Y cells assessed as suppression of cAMP hydrolysis at 10 uM by HTRF assay in presence of dye d2 labelled cAMP; format: cell-based; details: SH-SY5Y
[4] = target: cGMP-inhibited 3',5'-cyclic phosphodiesterase 3A (Homo sapiens, UniProt Q14432); assay: Inhibition of human recombinant PDE3 by fluorescence capillary-electrophoresis assay
cGMP-inhibited 3',5'-cyclic phosphodiesterase 3A, sequence (Q14432 whole entry): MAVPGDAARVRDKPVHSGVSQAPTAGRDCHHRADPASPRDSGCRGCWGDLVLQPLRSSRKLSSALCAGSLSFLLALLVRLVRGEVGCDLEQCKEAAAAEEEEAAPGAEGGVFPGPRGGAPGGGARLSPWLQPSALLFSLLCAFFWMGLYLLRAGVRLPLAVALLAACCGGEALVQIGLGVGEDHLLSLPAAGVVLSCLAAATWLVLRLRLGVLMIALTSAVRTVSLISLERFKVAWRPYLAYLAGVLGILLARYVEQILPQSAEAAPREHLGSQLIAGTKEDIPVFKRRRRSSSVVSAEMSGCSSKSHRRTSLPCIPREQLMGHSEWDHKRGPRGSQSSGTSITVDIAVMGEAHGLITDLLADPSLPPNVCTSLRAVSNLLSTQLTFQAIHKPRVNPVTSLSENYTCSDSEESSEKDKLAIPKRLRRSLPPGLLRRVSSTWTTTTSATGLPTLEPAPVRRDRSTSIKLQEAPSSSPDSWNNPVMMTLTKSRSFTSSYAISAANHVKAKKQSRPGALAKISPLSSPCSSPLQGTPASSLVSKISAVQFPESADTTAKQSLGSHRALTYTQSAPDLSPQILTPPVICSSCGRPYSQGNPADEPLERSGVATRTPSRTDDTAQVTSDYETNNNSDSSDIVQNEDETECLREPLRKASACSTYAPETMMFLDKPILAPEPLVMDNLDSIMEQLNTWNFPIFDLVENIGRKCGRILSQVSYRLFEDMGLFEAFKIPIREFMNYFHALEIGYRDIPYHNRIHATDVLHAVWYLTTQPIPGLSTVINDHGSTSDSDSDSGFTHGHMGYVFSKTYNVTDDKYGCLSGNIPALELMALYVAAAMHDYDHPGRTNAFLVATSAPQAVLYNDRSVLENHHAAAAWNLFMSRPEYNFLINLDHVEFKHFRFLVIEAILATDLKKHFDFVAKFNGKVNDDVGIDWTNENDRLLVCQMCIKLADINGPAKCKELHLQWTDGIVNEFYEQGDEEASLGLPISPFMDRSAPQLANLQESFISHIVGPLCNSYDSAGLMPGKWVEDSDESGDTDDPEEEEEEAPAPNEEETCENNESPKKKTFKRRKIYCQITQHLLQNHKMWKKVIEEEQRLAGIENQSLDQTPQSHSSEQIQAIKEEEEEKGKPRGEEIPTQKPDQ

3',5'-cyclic-AMP phosphodiesterase 4B, sequence (Q07343 whole entry): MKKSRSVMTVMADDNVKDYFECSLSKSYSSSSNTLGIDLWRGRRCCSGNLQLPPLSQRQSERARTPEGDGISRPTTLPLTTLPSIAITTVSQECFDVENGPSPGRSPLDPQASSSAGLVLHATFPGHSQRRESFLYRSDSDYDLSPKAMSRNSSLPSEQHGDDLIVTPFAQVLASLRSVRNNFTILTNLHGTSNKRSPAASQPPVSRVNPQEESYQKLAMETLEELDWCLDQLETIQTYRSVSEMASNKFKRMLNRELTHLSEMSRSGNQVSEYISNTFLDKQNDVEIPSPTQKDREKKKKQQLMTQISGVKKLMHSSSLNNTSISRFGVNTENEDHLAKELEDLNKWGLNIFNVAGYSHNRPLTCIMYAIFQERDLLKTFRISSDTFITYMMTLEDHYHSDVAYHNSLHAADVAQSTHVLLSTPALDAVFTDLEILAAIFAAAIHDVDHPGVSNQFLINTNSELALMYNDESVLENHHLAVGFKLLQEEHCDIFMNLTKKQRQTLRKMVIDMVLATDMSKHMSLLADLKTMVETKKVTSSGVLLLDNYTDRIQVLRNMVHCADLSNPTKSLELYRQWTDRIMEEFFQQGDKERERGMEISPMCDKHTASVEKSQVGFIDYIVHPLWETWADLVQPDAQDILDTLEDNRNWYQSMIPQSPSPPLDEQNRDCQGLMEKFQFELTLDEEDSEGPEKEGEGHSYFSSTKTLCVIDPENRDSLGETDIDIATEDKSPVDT

| SMILES | IC50 (Phosphodiesterase 4 [1]) [nM] | IC50 [2] [nM] | inhibition (Phosphodiesterase 4 [3]) [%] | IC50 [4] [nM] |
| --- | --- | --- | --- | --- |
| Cc1c(S(=O)(=O)c2cccc(C(=O)N(C)C)c2)nn2c(Nc3cc(Cl)cc(Cl)c3)c(C(N)=O)cnc12 | 130 | 0.2 |  |  |
| Cc1c(S(C)(=O)=O)nn2c(Nc3cc(Cl)cc(Cl)c3)c3c(nc12)CCNC3=O | 5 | 0.03 |  |  |
| CC(C)c1c(S(C)(=O)=O)nn2c(Nc3cc(Cl)cc(Cl)c3)c(C(N)=O)cnc12 | 507 | 6 |  |  |
| CNC(=O)c1cnc2c(C)cnn2c1Nc1cccc(OC)c1 | > 10000 | > 10000 |  |  |
| COc1cccc(Nc2c(C(N)=O)cnc3c(C)c(S(C)(=O)=O)nn23)c1 | 1820 | 26 |  |  |
| Cc1c(S(C)(=O)=O)nn2c(Nc3cc(Cl)cc(Cl)c3)c(C(N)=O)cnc12 | 1500 | 7 |  |  |
| Cc1c(S(=O)(=O)c2ccccc2)nn2c(Nc3cc(Cl)cc(Cl)c3)c(C(N)=O)cnc12 | 5600 | 7 |  |  |
| COc1cccc(Nc2c(C(N)=O)cnc3c(C)c(S(=O)(=O)c4ccccc4)nn23)c1 | 243 | 4 |  |  |
| COc1cccc(Nc2c(C(N)=O)cnc3c(C)c(S(=O)(=O)c4cccc(C(=O)N(C)C)c4)nn23)c1 | 629 | 0.7 |  |  |
| Cc1cnn2c(Nc3cc(Cl)cc(Cl)c3)c(C(N)=O)cnc12 | > 10000 | 16 |  |  |
| Cc1cnn2c(Nc3ccccc3)c(C(N)=O)cnc12 | > 10000 | 1950 |  |  |
| COc1cccc(Nc2c(C(N)=O)cnc3c(C)cnn23)c1 | > 10000 | 165 | < 50 | > 10000 |
| CCc1cnn2c(Nc3cccc(OC)c3)c(C(N)=O)cnc12 | 5400 | 38 |  |  |
| COc1cccc(Nc2c3c(nc4c(C)c(S(C)(=O)=O)nn24)CCNC3=O)c1 | 8 | 0.1 |  |  |
| CSc1nn2c(Nc3cc(Cl)cc(Cl)c3)c3c(nc2c1C)CCNC3=O | 480 | 0.2 |  |  |
| COc1cccc(Nc2c(C(N)=O)cnc3c(C(C)C)c(S(C)(=O)=O)nn23)c1 | 270 | 5 |  |  |
